Source: patent publication US20210130420A1, “RECOMBINANT BINDING PROTEINS TARGETING HER2 AND SERUM ALBUMIN, AND THEIR USES” (Molecular Partners AG, priority 2016, published 2021)
Values belong to the molecule of their own block, whether it stands above or below them.

How the values were obtained:
MDA-MB175 cells = assay: MDA-MB175 cell proliferation, BrdU-labeling; assay type: cell-based; details: for IC50: compound alone or titrated on top of 4 nM Protein #21-His, read-out: cell proliferation inhibition constant IC50, MDA-MB175
Method: (§1) Protein #21 and Protein #21-His were expressed and purified as described in Example 1. Standard BrdU cell proliferation assays were performed, well-known to the person skilled in the art. Briefly, effects on cell proliferation of Protein #21-His, other compounds, or Protein #21-His in combination with other compounds, were determined by measuring DNA synthesis using BrdU-labeling (BrdU, Cell Proliferation ELISA, Roche). Briefly, 10000 cells were seeded per well in a 96 well plate in 100 μl complete medium and incubated for 24 hours. Protein #21-His and/or compounds were added for an additional 72 hours. BrdU for cell labeling was added for the last 24 hours. Labeled (proliferating) cells were detected according to the manufactures protocol. The data were analyzed using the Graph Pad prism software (log [c] vs. OD450-602 nm plot). Data were fitted using a non-linear regression fit (log(antagonist) vs. response—variable slope (four parameters)).

BT474 cells = assay: BT474 cell proliferation, BrdU-labeling; assay type: cell-based, human; details: for IC50: Homo sapiens, BT-474, compound alone or titrated on top of 2 nM Protein #21-His, read-out: cell proliferation inhibition constant IC50, BT474
Method: Protein #21-His and Protein #23-His, were expressed and purified as described in Example 1. Effects of the recombinant binding proteins on BT474 cell proliferation were determined by measuring DNA synthesis using BrdU-labeling (BrdU, Cell Proliferation ELISA, Roche). Briefly, 10000 BT474 cells were seeded per well in a 96 well plate in 100 ul complete medium and incubated for 24 hours. Recombinant binding proteins or controls were added for an additional 72 hours. BrdU for cell labeling was added for the last 24 hours. Labeled (proliferating) cells were detected according to the manufactures protocol. The data were analyzed using the GraphPad prism software, plotting log [c] on the x-axis against OD450-602 nm on the y-axis. Data were fitted using a non-linear regression fit (log(antagonist) vs. response—Variable slope (four parameters)) deriving IC50 values.
as §1

[1] = Pharmacokinetic analysis in cynomolgus monkey; assay type: in vivo; details: 1 mg/kg, intravenous infusion
Method: The measurements shown in this example are the result of a half-life engineering effort as described in Example 11. Protein #21-His, Protein #23-His, and Protein #24-His were expressed and purified as described in Example 1. The pharmacokinetic properties of the proteins were assessed in cynomolgus monkey. Proteins were administered via intravenous infusion for 30 min at a target dose level of between 1 mg/kg to cynomolgus monkeys. Blood samples were collected pre-dose and again at selected time points, for example 5 min, 10 min, 0.5 hours, 1 hour, 2 hours, 4 hours, 8 hours, 12 hours, 24 hours, 48 hours, 72 hours, 96 hours, 120 hours, 144 hours, 168 hours, 192 hours, 216 hours, and 240 hours post-end of infusion (i.e. post-injection). The blood samples were allowed to stand at room temperature and were centrifuged to generate serum, followed by storage at −80° C. pending analyses. Pharmacokinetic parameters were determined using procedures well known to the person skilled in the art. Serum concentrations of proteins were determined by sandwich ELISA using a rabbit monoclonal anti-designed ankyrin repeat domain antibody as capture reagent and murine monoclonal anti-designed ankyrin repeat domain antibody as detection reagent, and using a standard curve. Pharmacokinetic parameters were determined using standard software such as Phoenix WinNonLin (Certara, Princeton, USA) or Graph Pad Prism (GraphPad Software, La Jolla, USA) and standard analyses such as non-compartmental analyses. […] Target mediated clearance is well-known to the person skilled in the art and is known from e.g. antibodies targeting HER2.
Similarly, Protein #21-His was expressed and purified as described in Example 1. The pharmacokinetic properties of the proteins were assessed in cynomolgus monkey as described above at 1 mg/kg, 5 mg/kg and 10 mg/kg.
Similar results are observed when testing Protein #21 (expressed and purified as described in Example 1). The pharmacokinetic properties of the proteins are assessed in cynomolgus monkey as described above at 1 mg/kg, 10 mg/kg and 100 mg/kg. Pharmacokinetic parameters are evaluated as described above.
(§2) For the studies in this example Protein #21-His, Protein #24-His, Protein #28-His, Protein #29-His, and Protein #30-His were prepared according to Example 1. Protein #28-His was additionally PEGylated using a 40 kDa PEG moiety (NOF Sunbright GL2-400MA) by maleimid coupling of the PEG-moiety onto the free C-terminal cysteine of Protein #28-His, followed by purification to homogeneity using standard purification methods, procedures well known to the person skilled in the art. Pharmacokinetic analyses in mouse or cynomolgus monkey were performed as described in Examples 8 and 9.

[2] = Pharmacokinetic analysis in mouse; assay type: in vivo
Method: The measurements shown in this example are the result of a half-life engineering effort as described in Example 11. Protein #21-His and Protein #23-His were expressed and purified as described in Example 1. The pharmacokinetic properties of the His-tagged proteins were assessed in mouse as described elsewhere (Zahnd, C., Kawe, M., Stumpp, M. T., de Pasquale, C., Tamaskovic, R., Nagy-Davidescu, G., Dreier, B., Schibli, R., Binz, H. K., Waibel, R., Plückthun, A., Cancer Res. 70, 1595-1605, 2010). […] Having SEQ ID NO: 16 present in the recombinant binding protein thus appears to be more favorable than having SEQ ID NO: 18 present.
Polypeptide linkers that link protein domains are well-known to the person skilled in the art. Gly-Ser-rich linkers are well-known from single-chain Fv antibody fragments, where they have proven to be most appropriate to link the two Fv polypeptide chains. […] Protein #26-His and Protein #27-His, were expressed and purified as described in Example 1. Pharmacokinetic analyses in mouse were performed as described in Example 8.
as §2

[3] = Storage stability in PBS analysed by size-exclusion chromatography; assay type: physicochemical; details: 10 mg/ml in PBS, 1 month at −80° C.
Method: A storage stability improvement is also observed, when testing the storage stability of Protein #21 and Protein #22 (recombinant binding proteins consisting of the amino acid sequences corresponding to SEQ ID NOs: 21 and 22, respectively). Protein #21 and Protein #22 are prepared as described in Example 1, samples are concentrated to 10 mg/ml in PBS and stored for 1 month at −80° C. in or at 40° C. in glass vials, followed by analysis on standard size-exclusion chromatography.

IC50 (MDA-MB175 cells): 104 nM
Molecule: C=C1C[C@@H]2CC[C@@]34C[C@H]5O[C@H]6[C@@H](O3)[C@H]3O[C@H](CC[C@@H]3O[C@H]6[C@H]5O4)CC(=O)C[C@@H]3[C@@H](OC)[C@@H](C[C@H](O)CN)O[C@H]3C[C@H]3O[C@@H](CC[C@@H]1O2)C[C@@H](C)C3=C [Eribulin]
inhibition of MDA-MB175 cell proliferation, in words (MDA-MB175 cells; single agent or on top of suboptimal Protein #21-His (4 nM) or Protein #21 (10 nM)): very low potency | inhibition of BT474 cell proliferation, in words (BT474 cells; single agent or on top of suboptimal Protein #21-His (2 nM) or Protein #21 (1 nM)): not active

IC50 (MDA-MB175 cells): 263000 nM
Molecule: CO[C@H]1C[C@@H]2CC[C@@H](C)[C@@](O)(O2)C(=O)C(=O)N2CCCC[C@H]2C(=O)O[C@H]([C@H](C)C[C@@H]2CC[C@@H](OCCO)[C@H](OC)C2)CC(=O)[C@H](C)/C=C(\C)[C@@H](O)[C@@H](OC)C(=O)[C@H](C)C[C@H](C)/C=C/C=C/C=C/1C [Everolimus]

IC50 (MDA-MB175 cells): 203 nM | IC50 (BT474 cells): 176 nM
Molecule: CS(=O)(=O)N1CCN(Cc2cc3nc(-c4cccc5[nH]ncc45)nc(N4CCOCC4)c3s2)CC1 [GDC-0941]

IC50 (MDA-MB175 cells): 2810 nM | IC50 (BT474 cells): 765 nM
Molecule: CS(=O)(=O)CCNCc1ccc(-c2ccc3ncnc(Nc4ccc(OCc5cccc(F)c5)c(Cl)c4)c3c2)o1 [Lapatinib]

B1: Protein #24-His: SEQ ID NO: 24 with a His-tag (SEQ ID NO: 1) fused to its N terminus (protein)
chain: MRGSHHHHHHGSDLGKKLLEAARAGQDDEVRELLKAGADVNAKDYFSHTPLHLAARNGHLKIVEVLLKAGADVNAKDFAGKTPLHLAANEGHLEIVEVLLKAGADVNAQDIFGKTPADIAADAGHEDIAEVLQKAAGSPTPTPTTPTPTPTTPTPTPTGSDLGKKLLEAARAGQDDEVRELLKAGADVNAKDYFSHTPLHLAARNGHLKIVEVLLKAGADVNAKDFAGKTPLHLAANEGHLEIVEVLLKAGADVNAQDIFGKTPADIAADAGHEDIAEVLQKAAGSPTPTPTTPTPTPTTPTPTPTGSDLGIKLLFAAAKGQDDEVRELLKAGADVNAKDFQGVTPLHIAAQSGHLEIVEVLLKAGADVNAKDVTGDTPLHLAAQHGHLEIVEVLLKAGADVNAQDERGWTPADLAADWGHEDIAEVLQKAAGSPTPTPTTPTPTPTTPTPTPTGSDLGKKLLEAARAGQDDEVRELLKAGADVNAKDEYGLTPLYLATAHGHLEIVEVLLKAGADVNAVDAIGFTPLHLAAFIGHLEIAEVLLKAGADVNAQDKFGKTPADIAAGAGNEDIAEVLQKAA
modifications: His-tag; Protein comprising four designed ankyrin repeat domains
terminal half-life [1]: 45 h

IC50 higher than that of Protein #21-His (BT474 cells; BT474 proliferation): 60%
B2: Protein #23-His: SEQ ID NO: 23 with a His-tag (SEQ ID NO: 1) fused to its N terminus (protein)
chain: MRGSHHHHHHGSDLGKKLLEAARAGQDDEVRELLKAGADVNAKDYFSHTPLHLAARNGHLKIVEVLLKAGADVNAKDFAGKTPLHLAANEGHLEIVEVLLKAGADVNAQDIFGKTPADIAADAGHEDIAEVLQKAAGSPTPTPTTPTPTPTTPTPTPTGSDLGVKLLWAAARGQDDEVRELLKAGADVNAKDFQGITPLHIAATNGHLEIVEVLLKAGADVNAKDITGETPLHHAADSGHLEIVEVLLKAGADVNAQDKAGVTPADLAAAWGHEDIAEVLQKAAGSPTPTPTTPTPTPTTPTPTPTGSDLGKKLLEAARAGQDDEVRELLKAGADVNAKDEYGLTPLYLATAHGHLEIVEVLLKAGADVNAVDAIGFTPLHLAAFIGHLEIAEVLLKAGADVNAQDKFGKTPADIAAGAGNEDIAEVLQKAAGSPTPTPTTPTPTPTTPTPTPTGSDLGKKLLEAARAGQDDEVRELLKAGADVNAKDYFSHTPLHLAARNGHLKIVEVLLKAGADVNAKDFAGKTPLHLAANEGHLEIVEVLLKAGADVNAQDIFGKTPADIAADAGHEDIAEVLQKAA
modifications: His-tag; Protein comprising four designed ankyrin repeat domains
% ID remaining after 48 hours [2]: 6.5 % ID | terminal half-life [2]: 24.7 h | terminal half-life [1]: 35 h

B3: Protein #22: SEQ ID NO: 22; corresponding recombinant binding protein with serum albumin binding domains of SEQ ID NO: 13 (protein)
chain: GSDLGKKLLEAARAGQDDEVRELLKAGADVNAKDYFSHTPLHLAARNGHLKIVEVLLKAGADVNAKDFAGKTPLHLAANDGHLEIVEVLLKAGADVNAQDIFGKTPADIAADAGHEDIAEVLQKAAGSPTPTPTTPTPTPTTPTPTPTGSDLGIKLLFAAAKGQDDEVRELLKAGADVNAKDFQGVTPLHIAAQSGHLEIVEVLLKAGADVNAKDVTGDTPLHLAAQHGHLEIVEVLLKAGADVNAQDERGWTPADLAADWGHEDIAEVLQKAAGSPTPTPTTPTPTPTTPTPTPTGSDLGKKLLEAARAGQDDEVRELLKAGADVNAKDEYGLTPLYLATAHGHLEIVEVLLKAGADVNAVDAIGFTPLHLAAFIGHLEIAEVLLKAGADVNAQDKFGKTPADIAAGAGNEDIAEVLQKAAGSPTPTPTTPTPTPTTPTPTPTGSDLGKKLLEAARAGQDDEVRELLKAGADVNAKDYFSHTPLHLAARNGHLKIVEVLLKAGADVNAKDFAGKTPLHLAANDGHLEIVEVLLKAGADVNAQDIFGKTPADIAADAGHEDIAEVLQKAA
modifications: Protein comprising four designed ankyrin repeat domains
elution profiles upon storage at −80° C. [3]: equivalent elution profiles
